Tests used:
[1] = biological target: T1, recombinant human ETA R (Homo sapiens, UniProt P25101); assay type: binding; conditions: [125I]-ET-1 40 pM, 2 hours at 37° C.; read-out: HERBAA IC50
T1 construct: expressed in transfected cells; host or cells: Ltk- cells
T1 sequence (P25101 21-427): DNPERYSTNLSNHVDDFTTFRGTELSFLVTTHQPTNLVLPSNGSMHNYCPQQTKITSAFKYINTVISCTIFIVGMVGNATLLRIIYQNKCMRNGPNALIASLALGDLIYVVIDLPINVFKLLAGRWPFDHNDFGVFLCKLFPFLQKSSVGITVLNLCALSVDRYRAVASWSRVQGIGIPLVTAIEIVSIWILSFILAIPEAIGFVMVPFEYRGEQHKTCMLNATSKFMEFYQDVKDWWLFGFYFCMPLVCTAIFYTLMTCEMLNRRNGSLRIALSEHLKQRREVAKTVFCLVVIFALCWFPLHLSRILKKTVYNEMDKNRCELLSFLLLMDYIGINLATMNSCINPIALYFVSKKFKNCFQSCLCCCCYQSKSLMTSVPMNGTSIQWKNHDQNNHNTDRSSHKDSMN
Description: (§1) The compounds of Formula I are valuable antagonists of endothelin.
(§2) The following cultured cells were used in binding experiments: rabbit renal artery vascular smooth muscle cells (ERBA-A), Ltk-cells expressing recombinant human ETA R (HERBA-A), and CHO-K1 cells expressing recombinant human ETB R (HERBA-B).
(§3) Membranes were prepared from cultured cells by lysing cells in cold lysis buffer (5 mM HEPES, 2 mM EDTA, pH 7.4) and homogenizing with a Dounce "A" homogenizer. The homogenate was centrifuged at 30,000× g for 20 minutes at 4° C. Membrane pellets were suspended in cold buffer containing 20 mM Tris, 2 mM EDTA, 200 μM Pefabloc, 10 μM phosphoramidon, 10 μM leupeptin, 1 μM pepstatin at pH 7.4 and frozen at -80° C. until use. Membranes were thawed and homogenized with a Brinkmann Polytron then diluted in tissue buffer containing 20 mM Tris, 2 mM EDTA, 200 μM Pefabloc, and 100 μM bacitracin (pH 7.4). Radioligand and competing ligands were prepared in binding buffer containing 20 mM Tris, 2 mM EDTA, and 0.1% BSA.
(§4) Competing binding assays were initiated by combining membranes, [125I]-ET-1 (40 pM) and the competing ligand in a final volume of 250 μL and incubating for 2 hours at 37° C. The assay was terminated by filtration over Whatman GF/B filters which were presoaked with 50 mM Tris, pH 7.4 containing 0.2% BSA and 100 μM bacitracin. Nonspecific binding was defined as binding in the presence of 100 nM ET-1.

[2] = biological target: T2, recombinant human ETB R (Homo sapiens, UniProt P24530); assay type: binding; conditions: [125I]-ET-1 40 pM, 2 hours at 37° C.; read-out: HERBAB IC50
T2 construct: expressed in transfected cells; host or cells: CHO-K1 cells
T2 sequence (P24530 27-442): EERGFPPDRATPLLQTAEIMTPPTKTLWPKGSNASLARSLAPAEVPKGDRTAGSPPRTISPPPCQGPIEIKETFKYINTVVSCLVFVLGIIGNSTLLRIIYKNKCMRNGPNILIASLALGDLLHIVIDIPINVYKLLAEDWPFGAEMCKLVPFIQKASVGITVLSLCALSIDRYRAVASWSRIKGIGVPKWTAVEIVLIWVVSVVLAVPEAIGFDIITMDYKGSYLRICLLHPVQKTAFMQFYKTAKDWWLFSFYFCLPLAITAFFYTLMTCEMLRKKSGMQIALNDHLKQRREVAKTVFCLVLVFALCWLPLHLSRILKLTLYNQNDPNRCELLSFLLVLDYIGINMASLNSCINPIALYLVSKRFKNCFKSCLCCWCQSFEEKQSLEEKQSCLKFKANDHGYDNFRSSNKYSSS
Description: as §1, §2, §3, §4

[3] = biological target: T3, ETA (Oryctolagus cuniculus, UniProt A5A8K3); test: AAR: inhibition of ET-1 stimulated arachidonic acid release in cultured rabbit renal artery vascular smooth muscle cells; assay type: cell-based; conditions: 0.3 nM ET-1, 30 minutes
T3 construct: cultured rabbit renal artery vascular smooth muscle cells; endogenous in cells; host or cells: cultured rabbit renal artery vascular smooth muscle cells
T3 sequence (A5A8K3 21-427): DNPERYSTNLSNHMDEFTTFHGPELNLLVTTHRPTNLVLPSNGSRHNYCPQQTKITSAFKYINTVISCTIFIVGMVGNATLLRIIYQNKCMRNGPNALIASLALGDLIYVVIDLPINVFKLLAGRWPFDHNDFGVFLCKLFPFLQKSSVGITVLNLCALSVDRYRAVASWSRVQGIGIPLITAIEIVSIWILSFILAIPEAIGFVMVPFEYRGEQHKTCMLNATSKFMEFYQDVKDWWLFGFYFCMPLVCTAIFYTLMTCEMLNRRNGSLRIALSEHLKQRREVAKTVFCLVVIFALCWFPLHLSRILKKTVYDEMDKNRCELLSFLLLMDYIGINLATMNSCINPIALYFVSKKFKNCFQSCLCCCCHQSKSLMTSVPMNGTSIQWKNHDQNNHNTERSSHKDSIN
Source text: as §1

[4] = biological target: T3, ETA; test: VERA-A: antagonism of ET-1 stimulated vasoconstriction in the rabbit femoral artery; conditions: rabbit femoral artery rings, antagonist added 30 minutes before ET-1; read-out: VERAA pA2 (converted)

| SMILES | IC50 [1] [µM] | IC50 [2] [µM] | IC50 [3] [µM] | Kb [4] [µM] |
| --- | --- | --- | --- | --- |
| COc1cc(C2=C(C(=O)O)N(Cc3ccc4c(c3)OCO4)S(=O)(=O)c3ccccc32)cc(OC)c1OC [Example 24, 2-Benzo[1,3]dioxol-5-ylmethyl-1,1-dioxo-4-(3,4,5-trimethoxyphenyl)-1,2-dihydro-1λ^6-benzo[e][1,2]thiazine-3-carboxylic acid] | 11 | > 25 |  |  |
| CN1C(C(=O)O)=C(c2ccc3c(c2)OCO3)c2ccccc2S1(=O)=O [Example 25, 4-Benzo[1,3]dioxol-5-yl-2-methyl-1,1-dioxo-1,2-dihydro-1λ^6-benzo[e][1,2]thiazine-3-carboxylic acid] | 1.7 | > 25 |  |  |
| O=C(O)C1=C(c2ccc3c(c2)OCO3)c2ccccc2S(=O)(=O)N1Cc1ccc2c(c1)OCO2 [Example 26, 4-Benzo[1,3]dioxol-5-yl-2-benzo[1,3]dioxol-5-ylmethyl-1,1-dioxo-1,2-dihydro-1λ^6-benzo[e][1,2]thiazine-3-carboxylic acid] | 0.3 | 3.1 |  |  |
| O=C(O)C1=C(c2ccc3c(c2)OCO3)c2ccccc2S(=O)(=O)N1Cc1ccccc1 [Example 27, 4-Benzo[1,3]dioxol-5-yl-2-benzyl-1,1-dioxo-1,2-dihydro-1λ^6-benzo[e][1,2]thiazine-3-carboxylic acid] | 0.16 | 4.6 |  |  |
| COc1cc(CN2C(C(=O)O)=C(c3ccc4c(c3)OCO4)c3ccccc3S2(=O)=O)cc(OC)c1OC [Example 29, 4-Benzo[1,3]dioxol-5-yl-1,1-dioxo-2-(3,4,5-trimethoxybenzyl)-1,2-dihydro-1λ^6-benzo[e][1,2]thiazine-3-carboxylic acid] | 0.17 | 4.7 |  |  |
| COc1ccc(CN2C(C(=O)O)=C(c3ccc4c(c3)OCO4)c3ccccc3S2(=O)=O)c(OCC(=O)O)c1 [Example 30, 4-Benzo[1,3]dioxol-5-yl-2-(2-carboxymethoxy-4-methoxybenzyl)-1,1-dioxo-1,2-dihydro-1λ^6-benzo[e][1,2]thiazine-3-carboxylic acid] | 1.8 | 4.9 |  |  |
| O=C(O)C1=C(c2ccc3c(c2)OCO3)c2ccccc2S(=O)(=O)N1Cc1cc2c(cc1Cl)OCO2 [Example 31, 4-Benzo[1,3]dioxol-5-yl-2-(6-chloro-benzo[1,3]dioxol-5-ylmethyl)-1,1-dioxo-1,2-dihydro-1λ^6-benzo[e][1,2]thiazine-3-carboxylic acid] | 0.055 | 0.38 | 1.3 |  |
| COc1cc(CN2C(C(=O)O)=C(c3ccc4c(c3)OCO4)c3ccccc3S2(=O)=O)cc2c1OCO2 [Example 32, 4-Benzo[1,3]dioxol-5-yl-2-(7-methoxy-benzo[1,3]dioxol-5-ylmethyl)-1,1-dioxo-1,2-dihydro-1λ^6-benzo[e][1,2]thiazine-3-carboxylic acid] | 0.3 | 4.7 |  |  |
| COc1ccc(C2=C(C(=O)O)N(Cc3ccc4c(c3)OCO4)S(=O)(=O)c3ccccc32)cc1OC [Example 33, 2-Benzo[1,3]dioxol-5-ylmethyl-4-(3,4-dimethoxy-phenyl)-1,1-dioxo-1,2-dihydro-1λ^6-benzo[e][1,2]thiazine-3-carboxylic acid] | 0.72 | 3.6 |  |  |
| O=C(NS(=O)(=O)c1ccccc1)C1=C(c2ccc3c(c2)OCO3)c2ccccc2S(=O)(=O)N1Cc1ccc2c(c1)OCO2 [Example 35, N-(4-Benzo[1,3]dioxo-5-yl-2-benzo[1,3]dioxol-5-ylmethyl-1,1-dioxo-1,2-dihydro-1λ^6-benzo[e][1,2]thiazine-3-carbonyl)-benzenesulfonamide] | 3 | > 25 |  |  |
| CN1C(C(=O)O)=C(Sc2ccc3c(c2)OCO3)c2ccccc2S1(=O)=O [Example 41, 4-(benzo[1,3]dioxol-5-ylsulfanyl)-2-methyl-1,1-dioxo-1,2-dihydro-1λ^6-benzo[e][1,2]thiazine-3-carboxylic acid] | 0.1 | 25 |  |  |
| O=C(O)C1=C(Sc2ccc3c(c2)OCO3)c2ccccc2S(=O)(=O)N1Cc1ccc2c(c1)OCO2 [Example 42, 2-Benzo[1,3]dioxol-5-ylmethyl-4-(benzo[1,3]dioxol-5-ylsulfanyl)-1,1-dioxo-1,2-dihydro-1λ^6-benzo[e][1,2]thiazine-3-carboxylic acid] | 0.066 | 5.4 | 1.2 | > 10 |
| O=C(O)C1=C(Sc2ccc3c(c2)OCO3)c2ccccc2S(=O)(=O)N1Cc1ccccc1 [Example 43, 4-(benzo[1,3]dioxol-5-ylsulfanyl)-2-benzyl-1,1-dioxo-1,2-dihydro-1λ^6-benzo[e][1,2]thiazine-3-carboxylic acid] | 0.12 | 12 |  |  |
| COc1ccc(CN2C(C(=O)O)=C(Sc3ccc4c(c3)OCO4)c3ccccc3S2(=O)=O)cc1 [Example 44, 4-(benzo[1,3]dioxol-5-ylsulfanyl)-2-(4-methoxy-benzyl)-1,1-dioxo-1,2-dihydro-1λ^6-benzo[e][1,2]thiazine-3-carboxylic acid] | 0.4 | 2.3 |  |  |
| COc1cc(CN2C(C(=O)O)=C(Sc3ccc4c(c3)OCO4)c3ccccc3S2(=O)=O)cc(OC)c1OC [Example 45, 4-(benzo[1,3]dioxol-5-ylsulfanyl)-2-(3,4,5-trimethoxy-benzyl)-1,1-dioxo-1,2-dihydro-1λ^6-benzo[e][1,2]thiazine-3-carboxylic acid] | 0.2 | 12 |  |  |
| O=C(O)C1=C(Sc2ccc3c(c2)OCO3)c2ccccc2S(=O)(=O)N1Cc1cc2c(cc1Cl)OCO2 [Example 46, 4-(Benzo[1,3]dioxol-5-ylsulfanyl)-2-(6-chloro-benzo[1,3]dioxol-5-ylmethyl)-1,1-dioxo-1,2-dihydro-1λ^6-benzo[e][1,2]thiazine-3-carboxylic acid] | 0.51 | 22 |  |  |
| COc1ccc(SC2=C(C(=O)O)N(Cc3ccc4c(c3)OCO4)S(=O)(=O)c3ccccc32)cc1OC [Example 48, 2-Benzo[1,3]dioxol-5-ylmethyl-4-(3,4-dimethoxyphenylsulfanyl)-1,1-dioxo-1,2-dihydro-1λ^6-benzo[e][1,2]thiazine-3-carboxylic acid] | 0.23 | 8.2 |  |  |
| COc1cccc(SC2=C(C(=O)O)N(Cc3ccc4c(c3)OCO4)S(=O)(=O)c3ccccc32)c1 [Example 49, 2-Benzo[1,3]dioxol-5-ylmethyl-4-(3-methoxyphenylsulfanyl)-1,1-dioxo-1,2-dihydro-1λ^6-benzo[e][1,2]thiazine-3-carboxylic acid] | 0.51 | 8.7 |  |  |
| COc1cc2c(cc1OC)S(=O)(=O)N(Cc1ccc3c(c1)OCO3)C(C(=O)O)=C2Sc1ccc2c(c1)OCO2 [Example 50, 2-Benzo[1,3]dioxol-5-ylmethyl-4-(benzo[1,3]dioxol-5-ylsulfanyl)-6,7-dimethoxy-1,1-dioxo-1,1-dihydro-1λ^6-benzo[e][1,2]thiazine-3-carboxylic acid] | 0.3 | 3.5 |  |  |
